Experimental data as given in patent publication US7148229B2, “Sulfonamide substituted xanthine derivatives” (Hoffman-La Roche Inc., priority 2003, dated 2006).

Molecular target: T1, recombinant human cytosolic PEPCK (GST-PEPCK) (Homo sapiens, UniProt P35558)
T1 construct: made in house; host or cells: E. coli
T1 sequence (P35558 1-622): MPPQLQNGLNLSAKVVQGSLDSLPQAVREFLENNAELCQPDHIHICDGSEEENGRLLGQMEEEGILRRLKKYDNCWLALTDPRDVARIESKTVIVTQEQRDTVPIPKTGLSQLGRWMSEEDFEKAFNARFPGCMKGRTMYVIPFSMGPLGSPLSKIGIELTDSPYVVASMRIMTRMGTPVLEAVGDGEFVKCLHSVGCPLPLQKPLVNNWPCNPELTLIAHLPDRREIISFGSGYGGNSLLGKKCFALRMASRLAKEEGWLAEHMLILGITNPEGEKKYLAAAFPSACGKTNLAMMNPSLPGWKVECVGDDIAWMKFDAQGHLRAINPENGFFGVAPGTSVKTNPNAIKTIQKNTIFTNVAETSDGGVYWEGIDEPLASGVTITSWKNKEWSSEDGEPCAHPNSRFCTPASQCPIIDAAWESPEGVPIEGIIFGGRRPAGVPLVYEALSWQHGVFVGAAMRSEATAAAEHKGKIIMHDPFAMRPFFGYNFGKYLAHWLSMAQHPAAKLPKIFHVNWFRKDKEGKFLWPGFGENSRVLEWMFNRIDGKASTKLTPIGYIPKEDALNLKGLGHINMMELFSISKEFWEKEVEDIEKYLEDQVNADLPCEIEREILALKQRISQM
Assay: PEPCK enzyme assay (coupled to pyruvate kinase / lactate dehydrogenase, absorbance at 340 nm)
Type: biochemical
Conditions: in vitro PEPCK enzymatic assay; GTP at 3 fold and OAA at 10 fold Km; final DMSO 10%; room temperature, twenty minutes
Protocol: E. coli cells expressing GST-PEPCK were suspended in 5 volumes of lysis buffer (50 mM Tris-hydroxymethyl aminomethyl (TRIS), 150 mM sodium chloride (NaCl), 10 mM ethylene-diametetraacetic acid (EDTA), 5 mM dithiothreitol(DTT), 1% Nonidet P-40, pH 7.4) in the presence of protease inhibitors, incubated with lysozyme at 200 micrograms/ml for 30 min. at room temperature, and sonicated 4×30 seconds at 4 degrees C. After centrifugation at 12,000×g for 20 min. to remove insoluble material, the supernatant was loaded onto glutathione Sepharose (Pharmacia), washed with lysis buffer followed by washing with lysis buffer in the absence of NP-40. GST-PEPCK was eluted with the same buffer containing 20 mM glutathione. The eluted protein was concentrated and dialyzed against 25 mM Hepes(N-[2-hydroxyethyl]piperazine-N′[2-ethanesulfonic acid), 150 mM NaCl, 2.5 mM EDTA, 5 mM DTT, 30% glycerol, pH 7.4, and stored at −20° C.
The inhibitory effect of the compounds of the present invention on PEPCK enzymatic activity was determined using recombinant human cytosolic PEPCK, expressed and purified from E.coli as a GST-fusion. Guanosine triphosphate (GTP) and manganese dependent PEPCK enzyme activity catalyzed the decarboxylation of oxalacetate leading to the formation of guanosine diphosphate (GDP) and phosphoenol pyruvate (PEP). This reaction is coupled to pyruvate kinase and lactate dehydrogenase catalyzed reactions and the overall reaction rate determined by measuring the change in absorbance at 340 nm (Chang, H. C. and Lane M. D., J. Biol. Chem. 241:2413–2420, 1966). The following modifications were made to the protocol: 2.5 μg of recombinant, human cytosolic glutathione-S-transferase (GST)-PEPCK was added to a reaction mixture at room temperature which contained 0.3 mM GTP, 0.3 mM oxaloacetate (OAA), 3 mM magnesium chloride (MgCl2), 0.075 mM manganese chloride (MnCl2), 30 mM potassium phosphates (KPO4), pH 7.6, 1 mM dithiothreitol (DTT), 0.2 mM adenosine diphosphate (ADP), 1 mM nicotinamide adenine dinucleotide, reduced form (NADH), 0.9 Units/ml each of pyruvate kinase and lactate dehydrogenase and 1 mg/ml bovine serum albumin (BSA). Test compounds were added such that final concentration of DMSO was 10%. Reactions were run for twenty minutes.
Km values for GTP and OAA were determined according to Michelis-Menton conditions as described in Comish-Bowden (Fundamentals of Enzyme Kinetics, 1995) in essentially the coupled assay conditions described above. […] Test compounds were added to reactions over a range of concentrations and IC50's were calculated from plots of inhibitor concentration versus enzyme rate. This method of determination of IC50 values is equally applicable to calculations based on PEPCK cellular assay.

SMILES | IC50 [nM]
CCCCn1c(=O)n(Cc2ccccc2)c(=O)c2[nH]c(Cc3ccc(NS(C)(=O)=O)cc3)nc21 [Example 24, N-[4-(1-Benzyl-3-butyl-2,6-dioxo-2,3,6,7-tetrahydro-1H-purin-8-ylmethyl)-phenyl]-methanesulfonamide] | 7550
CCCCn1c(=O)n(Cc2ccccc2F)c(=O)c2[nH]c(Cc3ccc(S(=O)(=O)Nc4ccncc4)cc3)nc21 [Example 29, 4-[3-Butyl-1-(2-fluoro-benzyl)-2,6-dioxo-2,3,6,7-tetrahydro-1H-purin-8-ylmethyl]-N-pyridin-4-yl-benzenesulfonamide] | 2400
CCCCn1c(=O)n(Cc2ccccc2F)c(=O)c2[nH]c(Cc3ccc(S(=O)(=O)Nc4cccnc4)cc3)nc21 [Example 30, 4-[3-Butyl-1-(2-fluoro-benzyl)-2,6-dioxo-2,3,6,7-tetrahydro-1H-purin-8-ylmethyl]-N-pyridin-3-yl-benzenesulfonamide] | 4100
CCCCn1c(=O)n(Cc2ccccc2F)c(=O)c2[nH]c(Cc3ccc(S(=O)(=O)Nc4ncccn4)cc3)nc21 [Example 31, 4-[3-Butyl-1-(2-fluoro-benzyl)-2,6-dioxo-2,3,6,7-tetrahydro-1H-purin-8-ylmethyl]-N-pyrimidin-2-yl-benzenesulfonamide] | 6350
CCCCn1c(=O)n(Cc2ccccc2F)c(=O)c2[nH]c(Cc3ccc(S(=O)(=O)Nc4c(C)nn(C)c4C)cc3)nc21 [Example 32, 4-[3-Butyl-1-(2-fluoro-benzyl)-2,6-dioxo-2,3,6,7-tetrahydro-1H-purin-8-ylmethyl]-N-(1,3,5-trimethyl-1H-pyrazol-4-yl)-benzenesulfonamide] | 6450

Further compounds by falling IC50, results first:

IC50 [nM] | SMILES
2400 | CCCCn1c(=O)n(Cc2ccccc2F)c(=O)c2[nH]c(Cc3ccc(S(=O)(=O)Nc4ccccn4)cc3)nc21 [Example 28, 4-[3-Butyl-1-(2-fluoro-benzyl)-2,6-dioxo-2,3,6,7-tetrahydro-1H-purin-8-ylmethyl]-N-pyridin-2-yl-benzenesulfonamide]
1450 | Cc1nn(C)cc1S(=O)(=O)N(C)c1ccc(Cc2nc3c([nH]2)c(=O)n(Cc2ccccc2F)c(=O)n3CC2CC2)cc1 [Example 27, 1,3-Dimethyl-1H-pyrazole-4-sulfonic acid {4-[3-cyclopropylmethyl-1-(2-fluoro-benzyl)-2,6-dioxo-2,3,6,7-tetrahydro-1H-purin-8-ylmethyl]-phenyl}-methyl-amide]
980 | Cc1nn(C)c(Cl)c1S(=O)(=O)Nc1ccc(Cc2nc3c([nH]2)c(=O)n(Cc2ccccc2F)c(=O)n3CC2CCC2)nc1 [Example 26, 5-Chloro-1,3-dimethyl-1H-pyrazole-4-sulfonic acid {6-[3-cyclobutylmethyl-1-(2-fluoro-benzyl)-2,6-dioxo-2,3,6,7-tetrahydro-1H-purin-8-ylmethyl]-pyridin-3-yl}-amide]
880 | CCCCn1c(=O)n(Cc2ccccc2F)c(=O)c2[nH]c(Cc3ccc(NS(=O)(=O)c4c(C)nn(C)c4Cl)cn3)nc21 [Example 25, 5-Chloro-1,3-dimethyl-1H-pyrazole-4-sulfonic acid {6-[3-butyl-1-(2-fluoro-benzyl)-2,6-dioxo-2,3,6,7-tetrahydro-1H-purin-8-ylmethyl]-pyridin-3-yl}-amide]
